# From ChEMBL document CHEMBL6134837, “Synergistic Cancer Therapy: An NIR-Activated Methylene Blue-Nitrogen Mustard Prodrug for Combined Chemotherapy and Photodynamic Therapy” (J Med Chem, 2025)
# Calls of active or inactive are those of the source. No cut-off for these calls is given here.
# Assays:
# B16-F10 [1] = experiment: Cytotoxicity against mouse B16-F10 cells assessed as cell viability measured at 10 uM after cells irradiated with 100 mW/cm^2, 660 nm light irradiation for 15 mins followed by measured after 48 hrs incubation by MTT assay relative to control; type: functional; conditions: B16-F10, light or radiation study, read-out: Activity
# B16-F10 [2] = experiment: Induction of apoptosis in mouse B16-F10 cells assessed as early apoptotic cells at 10 uM measured after 8 hrs followed by irradiated (100 mW/cm^2) for 15 mins by annexin VFITC (AV)/propidium iodide (PI) based flow cytometry (reference value: 1.02%); type: functional
# B16-F10 [3] = experiment: Induction of ROS generation in mouse B16-F10 cells assessed as increase in intracellular singlet oxygen by measuring […] fluorescence in nucleus at 10 uM measured co-incubated with SOSG followed by irradiated for 3 to 15 mins; type: functional, cell-based; conditions: time 3-15 min
# B16-F10 [4] = experiment: Induction of DNA damage in mouse B16-F10 cells assessed as green fluorescence in nuclei at 10 uM measured after irradiation with […] light by gamma-H2AX based assay; type: functional, cell-based
# B16-F10 [5] = experiment: Induction of apoptosis in mouse B16-F10 cells assessed as late apoptotic cells at 10 uM measured after 8 hrs followed by irradiated (100 mW/cm^2) for 15 mins by annexin VFITC (AV)/propidium iodide (PI) based flow cytometry (reference value: 5.20%); type: functional
# [6] = Induction of ROS generation in DCFH solution assessed as increase in fluorescent intensity using 525 nm pre-irradiated compound; type: functional
# B16-F10 [7] = experiment: Cytotoxicity against mouse B16-F10 cells assessed as cell death rate measured at 2 uM irradiated with 100 mW/cm^2, 660 nm light for 15 mins and measured after 48 hrs of incubation by MTT assay relative to control; type: functional
# B16-F10 [8] = experiment: Cytotoxicity against mouse B16-F10 cells assessed as cell viability measured irradiated with 100 mW/cm^2, 660 nm light for 15 mins and measured after 48 hrs incubation by MTT assay; type: functional, cell-based; conditions: B16-F10, light or radiation study
# B16-F10 [9] = experiment: Induction of ROS generation in mouse B16-F10 cells assessed as increase in intracellular superoxide anion by measuring red fluorescence in nucleus at 10 uM measured co-incubated with dihydroethidium (DHE) followed by irradiated for 3 to 15 mins; type: functional, cell-based; conditions: time 3-15 min
# [10] = Toxicity in BALB/c mouse transplanted with mouse B16-F10 cells assessed as kidney damage measured at 200 uM administered via intratumoural injection measured after 7 days by H and E staining based analysis; type: tissue-based; conditions: in vivo, other, 168 h, route it(Intratumoral), time 7 day
# B16-F10 [11] = experiment: Induction of DNA damage in mouse B16-F10 cells assessed as condensed chromatin measured after irradiation with […] light at 10 uM by Hoechst 33342 staining based assay; type: functional, cell-based
# [12] = Toxicity in BALB/c mouse transplanted with mouse B16-F10 cells assessed as liver damage measured at 200 uM administered via intratumoural injection measured after 7 days by H and E staining based analysis; type: tissue-based; conditions: in vivo, other, 168 h, route it(Intratumoral), time 7 day
# B16-F10 [13] = experiment: Induction of apoptosis in mouse B16-F10 cells assessed as viable cells at 10 uM measured after 8 hrs by annexin VFITC (AV)/propidium iodide (PI) based flow cytometry (reference value: 92.2%); type: functional; conditions: read-out: Activity
# [14] = Induction of hydroxyl radicals generation before irradiation by coumarin-3-carboxylic acid (3-CCA) assay; type: functional
# [15] = Hemolysis in healthy mouse RBC assessed as hemolysis rate at 1 to 256 uM measured after 2 hrs incubation by microplate reader; type: toxicity, cell-based, Erythrocyte; conditions: mouse red blood cells, dose 1-256 µM, read-out: Activity
# B16-F10 [16] = experiment: Cytotoxicity against mouse B16-F10 cells assessed as decrease in green fluorescence at 1 to 10 uM measured after cells irradiated with 100 mW/cm^2, 660 nm light irradiation for 15 mins by Calcein-AM/PI staining based photodynamic therapy (PDT) assay; type: functional, cell-based; conditions: dose 1-10 µM
# [17] = Photoactivation of the compound assessed as fluorescence changes at 10 uM measured after 21 mins under 660 nm laser irradiation relative to under dark condition; conditions: 0.35 h
# B16-F10 [18] = experiment: Cytotoxicity against mouse B16-F10 cells assessed as increase in dead cells by measuring red fluorescence at 10 uM measured after cells irradiated with 100 mW/cm^2, 660 nm light irradiation for 3 to 15 mins by Calcein-AM/PI staining based photodynamic therapy (PDT) assay; type: functional, cell-based; conditions: time 3-15 min
# [19] = Induction of ROS generation assessed as increase in singlet oxygen production using pre-irradiated compound by measuring reduction in ABDA absorption at 378 nm measured for 90 secs; type: functional; parameters: scale not given: the % may be the effect or the level left; conditions: time 90.0 sec
# B16-F10 [20] = experiment: Induction of apoptosis in mouse B16-F10 cells assessed as early apoptotic cells at 10 uM measured after 8 hrs by annexin VFITC (AV)/propidium iodide (PI) based flow cytometry (reference value: 1.02%); type: functional
# [21] = Induction of ROS generation assessed as increase in singlet oxygen production by measuring reduction in ABDA absorption; type: functional
# [22] = Induction of ROS generation assessed as superoxide anion production by measuring fold increase in fluorescent intensity of DHR123 using 526 nm pre-irradiated compound relative to non-illuminated condition; type: functional
# [23] = Photoactivation of the compound assessed as release of methylene blue by measuring photolysis half-life at 10 uM under 660 nm laser irradiation
# [24] = Photoactivation of the compound assessed as release of methylene blue at 10 uM measured after 21 mins under 660 nm laser irradiation; conditions: 0.35 h
# B16-F10 [25] = experiment: In vivo antitumor activity against mouse B16-F10 cells transplanted in BALB/c mouse model assessed as tumor growth inhibition at 200 uM administered via intratumoural injection followed by irradiated with 660 nm laser irradiation measured for 7 days; type: functional, organism-based; conditions: route it(Intratumoral), time 7.0 day
# B16-F10 [26] = experiment: In vivo antitumor activity against mouse B16-F10 cells transplanted in BALB/c mouse model assessed as tumor growth inhibition at 200 uM administered via intratumoural injection followed by irradiated with 660 nm laser irradiation measured on day 1; type: functional, organism-based; conditions: route it(Intratumoral), time 1.0 day
# [27] = Induction of ROS generation in DCFH solution assessed as fold increase in fluorescent intensity using 525 nm pre-irradiated compound relative to non-illuminated condition; type: functional
# [28] = Toxicity in BALB/c mouse transplanted with mouse B16-F10 cells assessed as spleen damage measured at 200 uM administered via intratumoural injection measured after 7 days by H and E staining based analysis; type: tissue-based; conditions: in vivo, other, 168 h, route it(Intratumoral), time 7 day
# B16-F10 [29] = experiment: In vivo antitumor activity against mouse B16-F10 cells transplanted in BALB/c mouse model assessed as inhibition of tumor cells in tumor slice at 200 uM administered via intratumoural injection followed by irradiated with 660 nm laser irradiation measured for 7 days by H and E staining based analysis; type: functional, organism-based; conditions: route it(Intratumoral), time 7.0 day
# B16-F10 [30] = experiment: Induction of apoptosis in mouse B16-F10 cells assessed as necrotic cells at 10 uM measured after 8 hrs by annexin VFITC (AV)/propidium iodide (PI) based flow cytometry (reference value: 1.61%); type: functional
# [31] = Drug uptake in BALB/c mouse transplanted with mouse B16-F10 cells assessed as increase in fluorescence intensity at tumor site at 200 uM administered via intratumoural injection followed by irradiated with 660 nm laser measured for 3 to 21 mins by imaging assay; type: ADME; conditions: in vivo, other, time 3-21 min, route it(Intratumoral)
# [32] = Induction of ROS generation in DCFH solution assessed as increase in fluorescent intensity measured under laser irradiation 660 nm for continuous 9 secs; type: functional; conditions: time 9.0 sec
# B16-F10 [33] = experiment: Cytotoxicity against mouse B16-F10 cells assessed as cell viability at 10 uM measured absence of irradiation by Calcein-AM/PI staining based assay; type: toxicity; conditions: b16-f10, 10 µM
# [34] = Induction of ROS generation assessed as superoxide anion production by measuring increase in fluorescent intensity of DHR123 using 526 nm (using non pre-irradiated condition); type: functional
# B16-F10 [35] = experiment: Induction of ROS generation in mouse B16-F10 cells assessed as fluorescence intensity at 10 uM measured co-incubated with DCFH-DA followed by irradiated for 3 to 15 mins; type: functional, cell-based; conditions: time 3-15 min
# B16-F10 [36] = experiment: Induction of DNA damage in mouse B16-F10 cells assessed as green fluorescence in nuclei measured in absence light at 10 uM by gamma-H2AX based assay; type: functional, cell-based
# [37] = Toxicity in BALB/c mouse transplanted with mouse B16-F10 cells assessed as body weight change measured at 200 uM administered via intratumoural injection measured after 7 days; conditions: in vivo, other, 168 h, route it(Intratumoral), time 7 day
# B16-F10 [38] = experiment: Cytotoxicity against mouse B16-F10 cells assessed as increase in dead cells by measuring red fluorescence at 10 uM measured after cells irradiated with 100 mW/cm^2, 660 nm light irradiation for 15 mins by Calcein-AM/PI staining based photodynamic therapy (PDT) assay; type: functional, cell-based
# [39] = Stability of the compound measured after 7 days under dark condition; type: physicochemical; conditions: 168 h; time 7 day
# B16-F10 [40] = experiment: Induction of apoptosis in mouse B16-F10 cells assessed as late apoptotic cells at 10 uM measured after 8 hrs by annexin VFITC (AV)/propidium iodide (PI) based flow cytometry (reference value: 5.20%); type: functional
# [41] = Induction of hydroxyl radicals generation after irradiation by coumarin-3-carboxylic acid (3-CCA) assay; type: functional
# [42] = Toxicity in BALB/c mouse transplanted with mouse B16-F10 cells assessed as heart damage measured at 200 uM administered via intratumoural injection measured after 7 days by H and E staining based analysis; type: tissue-based; conditions: in vivo, other, 168 h, route it(Intratumoral), time 7 day
# B16-F10 [43] = experiment: Induction of apoptosis in mouse B16-F10 cells assessed as necrotic cells at 10 uM measured after 8 hrs followed by irradiated (100 mW/cm^2) for 15 mins by annexin VFITC (AV)/propidium iodide (PI) based flow cytometry (reference value: 1.61%); type: functional
# B16-F10 [44] = experiment: Induction of apoptosis in mouse B16-F10 cells assessed as viable cells at 10 uM measured after 8 hrs followed by irradiated (100 mW/cm^2) for 15 mins by annexin VFITC (AV)/propidium iodide (PI) based flow cytometry (reference value: 92.2%); type: functional; conditions: B16-F10, light or radiation study, read-out: Activity
# B16-F10 [45] = experiment: Cytotoxicity against mouse B16-F10 cells assessed as cell viability at 1 to 10 uM measured after 48 hrs incubation under dark by MTT assay; type: toxicity, cell-based; conditions: b16-f10, 48 h, dose 1-10 µM
# [46] = Toxicity in BALB/c mouse transplanted with mouse B16-F10 cells assessed as lung damage measured at 200 uM administered via intratumoural injection measured after 7 days by H and E staining based analysis; type: tissue-based; conditions: in vivo, other, 168 h, route it(Intratumoral), time 7 day
compound,measurement,setting,value
CN(C)c1ccc2c(c1)Sc1cc(N(C)C)ccc1N2C(=O)Nc1ccc(N(CCCl)CCCl)cc1,viability at 10 µM,B16-F10 [1],9.4%
same,Activity,B16-F10 [2],44.8%
same,Activity,B16-F10 [3],Active
same,Activity,B16-F10 [4],Active; Effect Is Higher Compared With Nm And Mb Group
same,Activity,B16-F10 [5],30.9%
same,Activity,[6],Active
same,Activity,B16-F10 [7],62.2%
same,IC50,B16-F10 [8],1350 nM
same,Activity,B16-F10 [9],Active
same,Activity,[10],Non-toxic
same,Activity,B16-F10 [11],Active
same,Activity,[12],Non-toxic
same,viability at 10 µM,B16-F10 [13],89.2%
same,Activity,[14],inactive
same,"hemolysis at 2 h, up to 256 µM",[15],< 5%
same,Activity,B16-F10 [16],Active
same,fold change (FC),[17],7
same,Activity,B16-F10 [18],Active
same,Activity,[19],97%
same,Activity,B16-F10 [20],6.85%
same,Activity,[21],inactive
same,fold change (FC),[22],113
same,t1/2,[23],11 min
same,Activity,[24],100%
same,Activity,B16-F10 [25],Active
same,Activity,B16-F10 [26],Active; Compound Exhibit Strong Activity Relative To Mb+Light Group
same,fold change (FC),[27],69
same,Activity,[28],Non-toxic
same,Activity,B16-F10 [29],Active; Compared With Nm And Mb + Irradiation Group Â?? Compound Showed More Pronounced Effect
same,Activity,B16-F10 [30],0.65%
same,Drug uptake,[31],Active
same,Activity,[32],inactive
same,Activity,B16-F10 [33],Non-toxic
same,Activity,[34],inactive
same,Activity,B16-F10 [35],Active; Fluorescence Intensity Of Dcfh Within Cells Exhibited A Positive Correlation With The Duration Of Light Exposure
same,Activity,B16-F10 [36],Not active; Compound Showed Only Minimal Green Fluorescence
same,Activity,[37],Non-toxic
same,Activity,B16-F10 [38],Active; Almost Exclusively Exhibiting Red Fluorescence Signal
same,Stability,[39],Stable
same,Activity,B16-F10 [40],3.27%
same,Activity,[41],inactive
same,Activity,[42],Non-toxic
same,Activity,B16-F10 [43],0.45%
same,viability at 10 µM,B16-F10 [44],23.8%
same,Activity,B16-F10 [45],Non-toxic
same,Activity,[46],Non-toxic
CN(C)c1ccc2nc3ccc(N(C)C)cc3[s+]c2c1.[Cl-] [METHYLENE BLUE ANHYDROUS],viability at 10 µM,B16-F10 [1],22.5%
same,Activity,B16-F10 [2],54.8%
same,Activity,B16-F10 [5],11.3%
same,Activity,B16-F10 [43],0.83%
same,viability at 10 µM,B16-F10 [44],33.1%
CN(C)c1ccc2nc3ccc(=[N+](C)C)cc-3sc2c1,Activity,B16-F10 [4],Active
